Assay results reported in patent publication US9382257B2, “Substituted pyrrolo[2,3-b]pyrazines as serine/threonine kinase inhibitors” (Genentech, Inc., priority 2002, dated 2016).

What was measured:
[1] = target: T1, human ERK-2 (Mitogen Activated Kinase 1) (Homo sapiens, UniProt P28482); test: ERK-2 Enzymatic Assay (Example 2); type: biochemical; conditions: Omnia peptide S/T17, 25 μM ATP, read-out: ERK Inhibition IC50
T1 construct: n-terminal 6-His fusion protein in E. coli and corresponding to aa 8-360; 6-His (N); made in house; host or cells: E. coli
T1 sequence (P28482 8-360): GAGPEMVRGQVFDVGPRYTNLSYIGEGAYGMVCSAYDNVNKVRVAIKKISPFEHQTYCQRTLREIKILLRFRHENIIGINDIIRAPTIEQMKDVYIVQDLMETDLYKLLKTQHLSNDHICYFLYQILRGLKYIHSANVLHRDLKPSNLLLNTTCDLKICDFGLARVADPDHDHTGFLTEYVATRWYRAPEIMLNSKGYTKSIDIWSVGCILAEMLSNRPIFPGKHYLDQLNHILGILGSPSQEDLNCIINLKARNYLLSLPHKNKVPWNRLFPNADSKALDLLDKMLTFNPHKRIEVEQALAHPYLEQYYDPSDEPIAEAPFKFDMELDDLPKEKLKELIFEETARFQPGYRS
Procedure: Compounds were tested in an enzymatic assay using human ERK-2 (Mitogen Activated Kinase 1), recombinantly expressed as an n-terminal 6-His fusion protein in E. coli and corresponding to aa 8-360. The substrate used was the fluorescent Omnia peptide S/T17 (Invitrogen of Carlsbad, Calif.; Cat. KNZ1171C). Test compounds were diluted in DMSO in 3-fold serial dilutions at 100× final concentrations. […] The assay was run at ambient temperature in a white 384-well polypropylene plate (Nunc, Inc of Naperville, Ill.; Cat. 267462) collecting data every 50 seconds for approximately 30 minutes on an Envision plate reader (PerkinElmer, Inc. of Waltham, Mass.); Excitation 340 nm/Emission 495 nm. The data collected from each well was fit to a straight line and the resulting rates were used to calculate percent of control. Percent of control was plotted against compound concentration and IC50 values were determined using a four-parameter fit. Representative date is in TABLE 2 (infra).

[2] = system: PMA-stimulated P90RSK(Ser380) phosphorylation in HepG2 cells; test: Cellular P90RSK(Ser380) Phosphorylation Assay (Example 4); type: cell-based; conditions: Homo sapiens, 1.5 hour compound incubation, PMA 100 ng/mL, normalized to GAPDH, read-out: RSK Inhibition IC50
Procedure: Cellular P90RSK(Ser380) Phosphorylation Assay
Inhibition of PMA-stimulated P90RSK(Ser380) phosphorylation was determined by the following in vitro cellular mechanistic assay, which comprises incubating cells with a compound for 1.5 hours and quantifying fluorescent pP90RSK(Ser380) signal on fixed cells and normalizing to GAPDH signal.
Materials and Methods: HepG2 cells were obtained from ATCC and grown in DMEM supplemented with 10% fetal bovine serum. Cells were plated in 96-well plates at 35,000 cells/well and allowed to attach overnight at 37° C./5% CO2. Diluted compounds were then added at a final concentration of 0.5% DMSO. After 1.5 hour compound incubation, cells were stimulated with the addition of PMA (phorbol 12-myristate 13-acetate) at a final concentration of 100 ng/mL; the PMA stimulation was a 30-minute incubation at 37° C./5% CO2. After the 30-minute PMA stimulation, cells were washed with PBS and fixed in 3.7% formaldehyde in PBS at room temperature for 15-20 minutes. This was followed by another wash in PBS and then permeabilization in 100% MeOH at room temperature for 10-15 minutes. Following the permeabilization incubation, cells were washed in PBS/0.05% Tween-20, followed by a block in Odyssey blocking buffer (LI-COR Biosciences) for at least 1 hour. Antibodies to phosphorylated P90RSK(Ser380) (Cell Signaling #9335, rabbit monoclonal) and GAPDH (Fitzgerald 10R-G109a, mouse monoclonal) were added to the cells and incubated overnight at 4° C. pP90RSK(Ser380) antibody was used at a 1:250 dilution; GAPDH was used at a 1:10,000 dilution. After washing with PBS/0.05% Tween-20, the cells were incubated with fluorescently-labeled secondary antibodies (Anti-rabbit-Alexa Flour680, Invitrogen Cat#A21109; Anti-mouse-IRDye800CW, Rockland Inc. Cat#610-131-121) for 1 hour. Both secondary antibodies were used at a 1:1000 dilution. Cells were then washed and analyzed for fluorescence at both wavelengths using the Odyssey Infrared Imaging System (LI-COR Biosciences). Phosphorylated P90RSK(Ser380) signal was normalized to GAPDH signal. Representative date is in TABLE 2 (infra).

SMILES | IC50 [1] | IC50 [2]
Cc1[nH]ncc1-c1cnc2[nH]cc(-c3cnn(Cc4ccc(F)cc4F)c3)c2n1 [I-1, 7-[1-(2,4-difluoro-benzyl)-1H-pyrazol-4-yl]-2-(5-methyl-1H-pyrazol-4-yl)-5H-pyrrolo[2,3-b]pyrazine] | 1.23 nM | 242 nM
Cc1[nH]ncc1-c1cnc2[nH]cc(-c3cnn(Cc4ccc(F)c(Cl)c4)c3)c2n1 [I-2, 7-[1-(3-chloro-4-fluoro-benzyl)-1H-pyrazol-4-yl]-2-(5-methyl-1H-pyrazol-4-yl)-5H-pyrrolo[2,3-b]pyrazine] | 2.36 nM | 276 nM
Fc1cccc(Cn2cc(-c3c[nH]c4ncc(-c5cn[nH]c5)nc34)cn2)c1 [I-3, 7-[1-(3-fluoro-benzyl)-1H-pyrazol-4-yl]-2-(1H-pyrazol-4-yl)-5H-pyrrolo[2,3-b]pyrazine] | 2.75 nM | 403 nM
Cc1[nH]ncc1-c1cnc2[nH]cc(-c3cnn(Cc4ccccc4C#N)c3)c2n1 [I-4, 2-{4-[2-(5-methyl-1H-pyrazol-4-yl)-5H-pyrrolo[2,3-b]pyrazin-7-yl]-pyrazol-1-ylmethyl}-benzonitrile] | 1.3 nM | 202 nM
Cc1[nH]ncc1-c1cnc2[nH]cc(-c3cnn(Cc4ccccc4[N+](=O)[O-])c3)c2n1 [I-5, 2-(5-methyl-1H-pyrazol-4-yl)-7-[1-(2-nitro-benzyl)-1H-pyrazol-4-yl]-5H-pyrrolo[2,3-b]pyrazine] | 1.5 nM | 97.2 nM
Cc1[nH]ncc1-c1cnc2[nH]cc(-c3cnn(Cc4c(F)cccc4Cl)c3)c2n1 [I-6, 7-[1-(2-chloro-6-fluoro-benzyl)-1H-pyrazol-4-yl]-2-(5-methyl-1H-pyrazol-4-yl)-5H-pyrrolo[2,3-b]pyrazine] | 1.84 nM | 214 nM
COc1ccc(Cn2cc(-c3c[nH]c4ncc(-c5cn[nH]c5C)nc34)cn2)cc1F [I-7, 7-[1-(3-fluoro-4-methoxy-benzyl)-1H-pyrazol-4-yl]-2-(5-methyl-1H-pyrazol-4-yl)-5H-pyrrolo[2,3-b]pyrazine] | 1.89 nM | 340 nM
Cc1[nH]ncc1-c1cnc2[nH]cc(-c3cnn(Cc4ccccc4OC(F)F)c3)c2n1 [I-8, 7-[1-(2-difluoromethoxy-benzyl)-1H-pyrazol-4-yl]-2-(5-methyl-1H-pyrazol-4-yl)-5H-pyrrolo[2,3-b]pyrazine] | 2.5 nM | 191 nM
Cc1[nH]ncc1-c1cnc2[nH]cc(-c3cnn([C@@H](C)c4ccccc4Cl)c3)c2n1 [I-9, 7-{1-[(S)-1-(2-chloro-phenyl)-ethyl]-1H-pyrazol-4-yl}-2-(5-methyl-1H-pyrazol-4-yl)-5H-pyrrolo[2,3-b]pyrazine] | 2.8 nM | 299 nM
Cc1n[nH]c(C)c1-c1cnc2[nH]cc(-c3cnn(Cc4cccc(F)c4)c3)c2n1 [I-10, 2-(3,5-dimethyl-1H-pyrazol-4-yl)-7-[1-(3-fluoro-benzyl)-1H-pyrazol-4-yl]-5H-pyrrolo[2,3-b]pyrazine] | 2.7 nM | 387 nM
Fc1cccc(Cn2cc(-c3c[nH]c4ncc(-c5ccncc5)nc34)cn2)c1 [I-11, 7-[1-(3-fluoro-benzyl)-1H-pyrazol-4-yl]-2-pyridin-4-yl-5H-pyrrolo[2,3-b]pyrazine] | 2.77 nM | 501 nM
Cc1[nH]ncc1-c1cnc2[nH]cc(-c3cnn(Cc4cccc5cccnc45)c3)c2n1 [I-15, 8-{4-[2-(5-methyl-1H-pyrazol-4-yl)-5H-pyrrolo[2,3-b]pyrazin-7-yl]-pyrazol-1-ylmethyl}-quinoline] | 14 nM | 651 nM
Cc1n[nH]cc1-c1cnc2[nH]cc(-c3cnn(C(C)(C)c4ccccc4)c3)c2n1 [I-17, 7-[1-(1-methyl-1-phenyl-ethyl)-1H-pyrazol-4-yl]-2-(3-methyl-1H-pyrazol-4-yl)-5H-pyrrolo[2,3-b]pyrazine] | 36 nM | 2300 nM
Cc1n[nH]cc1-c1cnc2[nH]cc(-c3cnn(CCc4ccc(C(F)(F)F)cc4)c3)c2n1 [I-18, 2-(3-methyl-1H-pyrazol-4-yl)-7-{1-[2-(4-trifluoromethyl-phenyl)-ethyl]-1H-pyrazol-4-yl}-5H-pyrrolo[2,3-b]pyrazine] | 44.4 nM | ≥ 50000 nM
c1ccc(Cn2cc(-c3c[nH]c4ncc(-c5ccncc5)nc34)cn2)cc1 [I-21, 7-(1-benzyl-1H-pyrazol-4-yl)-2-(pyridin-4-yl)-5H-pyrrolo[2,3-b]pyrazine] | 6.9 nM | 1300 nM
Cc1[nH]ncc1-c1cnc2[nH]cc(-c3cnn(Cc4cc(F)ccc4Cl)c3)c2n1 [I-24, 7-[1-(2-chloro-5-fluoro-benzyl)-1H-pyrazol-4-yl]-2-(5-methyl-1H-pyrazol-4-yl)-5H-pyrrolo[2,3-b]pyrazine] | 2.02 nM | 371 nM
Cc1[nH]ncc1-c1cnc2[nH]cc(-c3cnn(C(C)c4ccccc4Cl)c3)c2n1 (stereo not drawn) [I-25, 7-{1-[1-(2-chloro-phenyl)-ethyl]-1H-pyrazol-4-yl}-2-(5-methyl-1H-pyrazol-4-yl)-5H-pyrrolo[2,3-b]pyrazine] | 2.2 nM | 200 nM
COc1cccc(F)c1Cn1cc(-c2c[nH]c3ncc(-c4cn[nH]c4C)nc23)cn1 [I-26] | 3.4 nM | 518 nM
Cc1[nH]ncc1-c1cnc2[nH]cc(-c3cnn(Cc4cc(F)ccc4C#N)c3)c2n1 [I-27, 4-fluoro-2-{4-[2-(5-methyl-1H-pyrazol-4-yl)-5H-pyrrolo[2,3-b]pyrazin-7-yl]-pyrazol-1-ylmethyl}-benzonitrile] | 24.8 nM | 2000 nM
O=C(NCc1cncc(-c2c[nH]c3ncc(-c4cn[nH]c4)nc23)c1)c1ccc(F)cc1 [II-3, 4-fluoro-N-{5-[2-(1H-pyrazol-4-yl)-5H-pyrrolo[2,3-b]pyrazin-7-yl]-pyridin-3-ylmethyl}-benzamide] | – | 1600 nM

Further lines, with some results ahead:

IC50 [1] | SMILES | IC50 [2]
30.1 nM | Cc1[nH]ncc1-c1cnc2[nH]cc(-c3ccc(OCCN4CCOCC4)nc3)c2n1 [II-2, 2-(5-methyl-1H-pyrazol-4-yl)-7-[6-(2-morpholin-4-yl-ethoxy)-pyridin-3-yl]-5H-pyrrolo[2,3-b]pyrazine] | 5700 nM
198 nM | Cc1cc(C(=O)NCc2cncc(-c3c[nH]c4ncc(-c5cn[nH]c5)nc34)c2)no1 [II-4] | 3700 nM
218 nM | Cc1nc(C(=O)NCc2cncc(-c3c[nH]c4ncc(-c5cn[nH]c5)nc34)c2)c(C)o1 [II-5, 2,5-dimethyl-oxazole-4-carboxylic acid {5-[2-(1H-pyrazol-4-yl)-5H-pyrrolo[2,3-b]pyrazin-7-yl]-pyridin-3-ylmethyl}-amide] | ≥ 50000 nM
29.9 nM | Cc1[nH]ncc1-c1cnc2[nH]cc(-c3ccc(NCc4ccccc4)nc3)c2n1 [II-7, benzyl-{5-[2-(5-methyl-1H-pyrazol-4-yl)-5H-pyrrolo[2,3-b]pyrazin-7-yl]-pyridin-2-yl}-amine] | 5700 nM
46.7 nM | Cc1[nH]ncc1-c1cnc2[nH]cc(-c3ccc(OCC4CC4)nc3)c2n1 [II-8, 7-(6-cyclopropylmethoxy-pyridin-3-yl)-2-(5-methyl-1H-pyrazol-4-yl)-5H-pyrrolo[2,3-b]pyrazine] | 5900 nM
144 nM | Cn1nccc1C(=O)NCc1cncc(-c2c[nH]c3ncc(-c4cn[nH]c4)nc23)c1 [II-9, 2-methyl-2H-pyrazole-3-carboxylic acid {5-[2-(1H-pyrazol-4-yl)-5H-pyrrolo[2,3-b]pyrazin-7-yl]-pyridin-3-ylmethyl}-amide] | ≥ 50000 nM
